Assay results as given in paper PMC5386260, “Acute development of cortical porosity and endosteal naïve bone formation from the daily but not weekly short-term administration of PTH in rabbit” (PLoS ONE, 2017).

How the values were obtained:
[1] = system: kidneys, thyroid and parathyroid; assay: Histopathological examination of kidney, thyroid and parathyroid; conditions: rabbit, in vivo
Method: Calcein (Dojindo Laboratories, Kumamoto, Japan) was subcutaneously injected into each animal at a dose of 10 mg/kg body weight on days 13 and 5 before sacrifice for bone double labeling (1-7-1-3). After the dosing period, the animals were euthanized by exsanguination under anesthesia using thiopental. The left and right tibiae were collected for a micro-CT analysis and histomorphometry, respectively. The kidneys, thyroid and parathyroid of all animals were collected and fixed in 10% neutral buffered formalin for a histopathological examination. The left tibiae were packed in plastic bags and stored at -30°C until use in a micro-CT analysis and mechanical testing. The right tibiae were fixed in 70% ethanol, stained with Villanueva bone stain, dehydrated in a graded ethanol series, defatted in acetone, and embedded in polymethyl methacrylate (Wako Pure Chemical Industries, Osaka, Japan). Thin ground sections of 10–20 μm in thickness were prepared using a micro cutting machine and a grinding machine (EXAKT, Germany) from a cross-section at a plane that was 3 mm proximal from the tibiofibular junction, and were subjected to bone histomorphometry. Right iliac crest were also fixed in 70% ethanol and processed for Vilanueva bone stain, dehydration, defattation, polymethyl methacrylate embedding and sectioning to 5 μm for three-dimensional second harmonic generation (3D-SHG) imaging. […]

[2] = Plasma TPTD concentration and pharmacokinetics (Rat PTH IRMA Kit, non-compartmental model); type: in vivo, rabbit
Description: Seventeen female New Zealand White rabbits (Kbl:NZW) were purchased from Kitayama Labs (Nagano, Japan) and were allowed to acclimatize with free access to water and food for 6 days before use. Throughout the experimental study, the animals were housed individually under a 12-h light/dark cycle with free access to water, but their food intake was restricted to 120g /day (LRC4, standard diet for rabbits; Oriental Yeast, Tokyo, Japan). The animals at 6 months of age were divided into 5 groups and were subcutaneously injected with 20 or 40 μg/kg of TPTD once-daily (D20 group [n = 3] and D40 group [n = 3], 140 or 280 μg/kg of TPTD once-weekly (W140 group [n = 3] and W280 group [n = 4]) for four weeks (Table 1). For the high-dose administration of TPTD, the dosage in once-daily treatment was set at 40 μg/kg/day based on a previous study, while the dosage of once-weekly TPTD treatment was set at 280 μg/kg/week; thus, the cumulative dose of TPTD each week was the same with the two treatment frequencies. In the W140 and W280 groups, saline was administered every day, except for the days on which TPTD was administered. Saline injections were administered to control animals (C group, n = 4) once daily and to each group as a vehicle.
[…] The samples were centrifuged at 1600 x g, at 4°C for 10 minutes and plasma samples were collected in order to measure the concentration of TPTD. […]
Teriparatide acetate was synthesized at Asahi Kasei Pharma Corporation (Tokyo, Japan) and was used as a standard substance. The teriparatide acetate concentration in the rabbit plasma was quantified using a Rat PTH IRMA Kit (Immutopics, Inc., San Clemente, CA) according to the manufacturer’s instructions. The pharmacokinetic parameters were calculated using a non-compartmental model (Phoenix WinNonlin; Pharsight, Mountain View, CA).

time for plasma TPTD levels to return to the basal levels ([2]; all of the dosage regimens): ≤ 3 h
plasma TPTD concentration relative to Cmax by 2h ([2]; all regimens (D20, D40, W140, W280), 2h post-dose): less than 40 % of Cmax
level at 5 min ([2]; female, New Zealand White (Kbl:NZW), rabbit, plasma, sc, 20 ug/kg, Day 1, 5 min, D20 (20 μg/kg sc once-daily), n=3, IRMA, mean): 7.14 ng/mL
level at 0.25 h ([2]; female, New Zealand White (Kbl:NZW), rabbit, plasma, sc, 20 ug/kg, Day 1, 15 min, D20 (20 μg/kg sc once-daily), n=3, IRMA, mean): 14.9 ng/mL
level at 0.5 h ([2]; female, New Zealand White (Kbl:NZW), rabbit, plasma, sc, 20 ug/kg, Day 1, 30 min, D20 (20 μg/kg sc once-daily), n=3, IRMA, mean): 19.8 ng/mL
level at 1 h ([2]; female, New Zealand White (Kbl:NZW), rabbit, plasma, sc, 20 ug/kg, Day 1, 1 hour, D20 (20 μg/kg sc once-daily), n=3, IRMA, mean): 11.8 ng/mL
level at 2 h ([2]; female, New Zealand White (Kbl:NZW), rabbit, plasma, sc, 20 ug/kg, Day 1, 2 hour, D20 (20 μg/kg sc once-daily), n=3, IRMA, mean): 1.77 ng/mL
level at 5 min ([2]; female, New Zealand White (Kbl:NZW), rabbit, plasma, sc, 20 ug/kg, Day 22, 5 min, D20 (20 μg/kg sc once-daily), n=3, IRMA, mean): 7.06 ng/mL
level at 0.25 h ([2]; female, New Zealand White (Kbl:NZW), rabbit, plasma, sc, 20 ug/kg, Day 22, 15 min, D20 (20 μg/kg sc once-daily), n=3, IRMA, mean): 17 ng/mL
level at 0.5 h ([2]; female, New Zealand White (Kbl:NZW), rabbit, plasma, sc, 20 ug/kg, Day 22, 30 min, D20 (20 μg/kg sc once-daily), n=3, IRMA, mean): 24.6 ng/mL
level at 1 h ([2]; female, New Zealand White (Kbl:NZW), rabbit, plasma, sc, 20 ug/kg, Day 22, 1 hour, D20 (20 μg/kg sc once-daily), n=3, IRMA, mean): 20.5 ng/mL
level at 2 h ([2]; female, New Zealand White (Kbl:NZW), rabbit, plasma, sc, 20 ug/kg, Day 22, 2 hour, D20 (20 μg/kg sc once-daily), n=3, IRMA, mean): 3.8 ng/mL
level at 24 h ([2]; female, New Zealand White (Kbl:NZW), rabbit, plasma, sc, 20 ug/kg, Day 22, 24 hour, D20 (20 μg/kg sc once-daily), n=3, IRMA, mean): 0.13 ng/mL
level at 5 min ([2]; female, New Zealand White (Kbl:NZW), rabbit, plasma, sc, 40 ug/kg, Day 1, 5 min, D40 (40 μg/kg sc once-daily), n=3, IRMA, mean): 9.83 ng/mL
level at 0.25 h ([2]; female, New Zealand White (Kbl:NZW), rabbit, plasma, sc, 40 ug/kg, Day 1, 15 min, D40 (40 μg/kg sc once-daily), n=3, IRMA, mean): 23.6 ng/mL
level at 0.5 h ([2]; female, New Zealand White (Kbl:NZW), rabbit, plasma, sc, 40 ug/kg, Day 1, 30 min, D40 (40 μg/kg sc once-daily), n=3, IRMA, mean): 34.3 ng/mL
level at 1 h ([2]; female, New Zealand White (Kbl:NZW), rabbit, plasma, sc, 40 ug/kg, Day 1, 1 hour, D40 (40 μg/kg sc once-daily), n=3, IRMA, mean): 29.9 ng/mL
level at 2 h ([2]; female, New Zealand White (Kbl:NZW), rabbit, plasma, sc, 40 ug/kg, Day 1, 2 hour, D40 (40 μg/kg sc once-daily), n=3, IRMA, mean): 10.6 ng/mL
level at 5 min ([2]; female, New Zealand White (Kbl:NZW), rabbit, plasma, sc, 40 ug/kg, Day 22, 5 min, D40 (40 μg/kg sc once-daily), n=3, IRMA, mean): 10.3 ng/mL
level at 0.25 h ([2]; female, New Zealand White (Kbl:NZW), rabbit, plasma, sc, 40 ug/kg, Day 22, 15 min, D40 (40 μg/kg sc once-daily), n=3, IRMA, mean): 32.7 ng/mL
level at 0.5 h ([2]; female, New Zealand White (Kbl:NZW), rabbit, plasma, sc, 40 ug/kg, Day 22, 30 min, D40 (40 μg/kg sc once-daily), n=3, IRMA, mean): 54 ng/mL
level at 1 h ([2]; female, New Zealand White (Kbl:NZW), rabbit, plasma, sc, 40 ug/kg, Day 22, 1 hour, D40 (40 μg/kg sc once-daily), n=3, IRMA, mean): 49.2 ng/mL
level at 2 h ([2]; female, New Zealand White (Kbl:NZW), rabbit, plasma, sc, 40 ug/kg, Day 22, 2 hour, D40 (40 μg/kg sc once-daily), n=3, IRMA, mean): 14 ng/mL
level at 5 min ([2]; female, New Zealand White (Kbl:NZW), rabbit, plasma, sc, 140 ug/kg, Day 1, 5 min, W140 (140 μg/kg sc once-weekly), n=3, IRMA, mean): 38 ng/mL
level at 0.25 h ([2]; female, New Zealand White (Kbl:NZW), rabbit, plasma, sc, 140 ug/kg, Day 1, 15 min, W140 (140 μg/kg sc once-weekly), n=3, IRMA, mean): 85.4 ng/mL
level at 0.5 h ([2]; female, New Zealand White (Kbl:NZW), rabbit, plasma, sc, 140 ug/kg, Day 1, 30 min, W140 (140 μg/kg sc once-weekly), n=3, IRMA, mean): 132 ng/mL
level at 1 h ([2]; female, New Zealand White (Kbl:NZW), rabbit, plasma, sc, 140 ug/kg, Day 1, 1 hour, W140 (140 μg/kg sc once-weekly), n=3, IRMA, mean): 121 ng/mL
level at 2 h ([2]; female, New Zealand White (Kbl:NZW), rabbit, plasma, sc, 140 ug/kg, Day 1, 2 hour, W140 (140 μg/kg sc once-weekly), n=3, IRMA, mean): 50.4 ng/mL
level at 5 min ([2]; female, New Zealand White (Kbl:NZW), rabbit, plasma, sc, 140 ug/kg, Day 22, 5 min, W140 (140 μg/kg sc once-weekly), n=3, IRMA, mean): 33.5 ng/mL
level at 0.25 h ([2]; female, New Zealand White (Kbl:NZW), rabbit, plasma, sc, 140 ug/kg, Day 22, 15 min, W140 (140 μg/kg sc once-weekly), n=3, IRMA, mean): 124 ng/mL
level at 0.5 h ([2]; female, New Zealand White (Kbl:NZW), rabbit, plasma, sc, 140 ug/kg, Day 22, 30 min, W140 (140 μg/kg sc once-weekly), n=3, IRMA, mean): 202 ng/mL
Compound: CC[C@H](C)[C@H](NC(=O)[C@H](CCC(=O)O)NC(=O)[C@H](CO)NC(=O)[C@@H](NC(=O)[C@@H](N)CO)C(C)C)C(=O)N[C@@H](CCC(N)=O)C(=O)N[C@@H](CC(C)C)C(=O)N[C@@H](CCSC)C(=O)N[C@@H](Cc1cnc[nH]1)C(=O)N[C@@H](CC(N)=O)C(=O)N[C@@H](CC(C)C)C(=O)NCC(=O)N[C@@H](CCCCN)C(=O)N[C@@H](Cc1cnc[nH]1)C(=O)N[C@@H](CC(C)C)C(=O)N[C@@H](CC(N)=O)C(=O)N[C@@H](CO)C(=O)N[C@@H](CCSC)C(=O)N[C@@H](CCC(=O)O)C(=O)N[C@@H](CCCN=C(N)N)C(=O)N[C@H](C(=O)N[C@@H](CCC(=O)O)C(=O)N[C@@H](Cc1c[nH]c2ccccc12)C(=O)N[C@@H](CC(C)C)C(=O)N[C@@H](CCCN=C(N)N)C(=O)N[C@@H](CCCCN)C(=O)N[C@@H](CCCCN)C(=O)N[C@@H](CC(C)C)C(=O)N[C@@H](CCC(N)=O)C(=O)N[C@@H](CC(=O)O)C(=O)N[C@H](C(=O)N[C@@H](Cc1cnc[nH]1)C(=O)N[C@@H](CC(N)=O)C(=O)N[C@@H](Cc1ccccc1)C(=O)O)C(C)C)C(C)C [TPTD, Teriparatide]
general histopathological examination, toxic effects [1]: No obvious toxic effects were observed in any specimens
